Laboratory results reported in patent US20250032569A1, “COMPOSITION, IN PARTICULAR COSMETIC FORMULATION, COMPRISING A VERBASCOSIDE EXTRACT” (MEDENA AG, priority 2021, published 2025).

Legend:
[1] = organic (synthetic) chemical sunscreens, Table 1; cited from earlier work
[2] = In vitro spectrophotometric SPF calculated by the Sayre equation (Eq. 1); format: physicochemical
Protocol: Each sample (1 ml) was placed in a 1 cm quartz cell. The absorbance was measured between 250-600 nm at an interval of every 1 nm using a Varian UV/Vis spectrophotometer (Cary 50 Scan). The following parameters were measured and calculated for each sample assuming standard application to the skin—2 mg/cm^2: • the SPF values. • the critical wavelength λC • the UVA/UVB ratio 1. […]
Each sample (1 ml) was placed in a 1 cm quartz cell. The absorbance was measured between 250-600 nm at an interval of every 1 nm using a Varian UV/Vis spectrophotometer (Cary 50 Scan). The following parameters were measured and calculated for each sample assuming standard application to the skin—2 mg/cm^2: • the SPF values. • the critical wavelength λC • the UVA/UVB ratio
The SPF values in vitro were calculated according to the method described by Sayre et al., (Sayre, R M; Agin, P P; LeVee, G J; Marlowe, E. A comparison of in vivo and in vitro testing of sunscreening formulas, Photochem. Photobiol. 1979, 29, 559-566). The calculation was done using Equation 1: […]
where Ss(λ) is the spectral irradiance, Ser(λ) is the CIE erythema action spectrum and T(λ) is the transmission of the sunscreen. The values of Ss(λ) and Ser(λ) were taken from the literature (B. L. Diffey, J. Robson. A new substrate to measure sunscreen protection factors throughout the ultraviolet spectrum, J. Soc. Cosmet. Chem. 1989, 40, 127-133). […]
SPF values were calculated using Eq. 1 for sun protective cosmetics applied at 2 mg/cm^2 (standard application).
The same methods and equations as in the case of plant extracts were applied.
Solutions of sunscreens at concentrations 0.001% were prepared in duplicate and UV-visible absorption spectra were recorded over the range of 250-600 nm (FIG. 1). On the basis of these spectra, the transmission of the sunscreen (T) was found from monochromatic absorbance values at wavelength λ: T=10^−A(λ).
The SPF in vitro was calculated according to the method described by Sayre et al., (Sayre, R M; Agin, P P; LeVee, G J; Marlowe, E. A comparison of in vivo and in vitro testing of sunscreening formulas, Photochem. Photobiol. 1979, 29, 559-566) following equation 1: […]
where Ss(λ) is the spectral irradiance, Ser(λ) the CIE erythema action spectrum and T(λ) the trans-mission of the sunscreen. Data for Ss(λ) and Ser(λ) are available in the literature (B. L. Diffey, J. Robson. A new substrate to measure sunscreen protection factors throughout the ultraviolet spectrum, J. Soc. Cosmet. Chem. 1989, 40, 127-133).
The SPF values were calculated using Eq 1 with the application conditions 2 mg/cm^2 (Standard application recommended by the European Agency).
The SPF value for lotions were calculated using Eq. 1 for three application conditions at 2 mg/cm^2 (standard application), 2.5 mg/cm^2 and 3 mg/cm^2. In the same Table 22, critical wavelength and the UVA/UVB ratios are shown.

[3] = SPF calculated by modified Sayre method; format: physicochemical
Description: In the following Table 20, there are SPF values obtained in vitro spectrophotometrically, which have been calculated by a classical Sayre method (Sayre, R M; Agin, P P; LeVee, G J; Marlowe, E. A comparison of in vivo and in vitro testing of sunscreening formulas, Photochem. Photobiol. 1979, 29, 559-566) and modified Sayre method, which gives results similar to those obtained in the in vivo tests recommended by COLIPA.
• (1) For water insoluble chemical filters, the modified Sayre method gives results close to those calculated by Simulator-Calculator (BASF) and the in vivo tests. The Simulator-Calculator uses the modified Sayre method assuming an exponentiation equal to 0.827 (X^0.827). • (2) For water soluble natural filters, the same modified Sayre method would give results close to those obtained by the in vivo tests (predicted by Simulator-Calculator). Examples of Cosmetic Compositions with Fully Natural Sun Protective Factors • 1. Sun protective lotion SPF 50+, high UV-A protection • 2. Sun protective cream SPF 50+, high UV-A protection • 3. Sun protective serum for pregnant and milking women SPF 50+, high UV-A protection • 4. Sun protective milk for babies SPF 50+, high UV-A protection • 5. Sun protective lotion SPF 20-30, high UV-A protection for people with highly sensitive skin E. Analysis of Sun Protective Parameters of Two Lotions and Cream Containing Lippia citriodora Extract with 40% of Verbascoside.

[4] = Critical wavelength (λC) from absorption spectra (Eq. 2); format: physicochemical; details: for critical wavelength: chemical sunscreen, no concentration stated
Protocol: The Critical Wavelength λC is the wavelength, where the area under the absorbance spectrum for the irradiated product from 290 nm to λC is equal to 90% of the integral value of the absorbance spectrum from 290 to 400 nm and was calculated using Eq. 2:
where A (λ)=monochromatic absorbance values at wavelength λ. The critical wavelength was determined for all samples in order to assess a degree of UVA protection. In cases where the critical wavelength is lower than 370 nm, the protection from UVA is less evident.
The Critical Wavelength λC value for the test product was defined as that wavelength where the area under the absorbance spectrum of the sample from 290 nm to λC is 90% of the integral of the absorbance spectrum from 290 to 400 nm and is calculated using Eq. 2:
[formula] • A(λ)=monochromatic absorbance values at wavelength λ

[5] = UVA/UVB ratio from absorption spectra (Eq. 3) and Boots UVA Star Rating; format: physicochemical; details: for ratio UVA/UVB: chemical sunscreen, no concentration stated
Protocol: Critical Wavelength (λC) and the UVA/UVB ratios were also calculated from the absorption spectra and were collected in Table 2. […] According to these International indications, aqueous solutions of Haberlea rhodopensis with different concentrations of myconoside can be attributed to the group of good protection (2 UVA Star Rating).
In order to further characterize solutions as skin photo-protectors from UVA, the UVA/UVB ratio was calculated using Eq. 3: […]
In order to characterize the ability of creams to protect skin against UVA the UVA/UVB ratio was calculated using Eq. 3: […]

[6] = UV filter 0.5% in sun protective cosmetic (Table 20)
[7] = UV filter 1.0% in sun protective cosmetic (Table 20)
[8] = UV filter 2.5% in sun protective cosmetic (Table 20)
[9] = UV filter 5% in sun protective cosmetic (Table 20)
[10] = UV filter 10% in sun protective cosmetic (Table 20)
[11] = chemical UV filter 0.5% in sun protective solution (Tables 12-19)
[12] = chemical UV filter 1% in sun protective solution (Tables 12-19)
[13] = chemical UV filter 2.5% in sun protective solution (Tables 12-19)
[14] = chemical UV filter 5% in sun protective solution (Tables 12-19)
[15] = chemical UV filter 10% in sun protective solution (Tables 12-19)
[16] = chemical UV filter 0.5% in sun protective solution
[17] = chemical UV filter 1% in sun protective solution
[18] = chemical UV filter 2.5% in sun protective solution
[19] = chemical UV filter 5% in sun protective solution
[20] = chemical UV filter 10% in sun protective solution
[21] = UV filter 0.5% in sun protective cosmetic
[22] = UV filter 1.0% in sun protective cosmetic
[23] = UV filter 2.5% in sun protective cosmetic
[24] = UV filter 5% in sun protective cosmetic
[25] = UV filter 10% in sun protective cosmetic

Row | Critical wavelength (λC) [4, 16] [nm] | Critical wavelength (λC) [4, 17] [nm] | Critical wavelength (λC) [4, 18] [nm] | Critical wavelength (λC) [4, 19] [nm] | Critical wavelength (λC) [4, 20] [nm] | critical wavelength [4] [nm] | SMILES | Absorbs UV-A [1] | SPF values calculated by the Sayre equation [2, 6] | SPF values calculated by the Sayre equation [2, 7] | SPF values calculated by the Sayre equation [2, 8] | SPF values calculated by the Sayre equation [2, 9] | SPF values [2, 11] | SPF values [2, 12] | SPF values [2, 13] | SPF values [2, 14] | SPF values [2, 15] | SPF values calculated by Modified Sayre [3, 21] | SPF values calculated by Modified Sayre [3, 22] | SPF values calculated by Modified Sayre [3, 23] | SPF values calculated by Modified Sayre [3, 24] | other results
1 |  |  |  |  |  |  | CC1(C)C2CCC1(CS(=O)(=O)O)C(=O)C2=Cc1ccc(C=C2C(=O)C3(CS(=O)(=O)O)CCC2C3(C)C)cc1 [Mexoryl SX] | UV-A |  |  |  |  |  |  |  |  |  |  |  |  |  | 
2 |  |  |  |  |  |  | Cc1cc(CC(C)C[Si](C)(O[Si](C)(C)C)O[Si](C)(C)C)c(O)c(-n2nc3ccccc3n2)c1 (stereo not shown) [Mexoryl XL] | UV-A |  |  |  |  |  |  |  |  |  |  |  |  |  | Absorbs UV-B [1]: UV-B
3 |  |  |  |  |  |  | O=S(=O)([O-])c1cc(S(=O)(=O)O)cc2[nH]c(-c3ccc(-c4nc5c(S(=O)(=O)[O-])cc(S(=O)(=O)O)cc5[nH]4)cc3)nc12.[Na+].[Na+] [Neoheliopan AP] | UV-A |  |  |  |  |  |  |  |  |  |  |  |  |  | 
4 |  |  |  |  |  |  | C[C@@H]1O[C@@H](O[C@@H]2[C@@H](O)[C@H](OCCc3ccc(O)c(O)c3)O[C@H](CO)[C@H]2OC(=O)/C=C/c2ccc(O)c(O)c2)[C@H](O)[C@H](O)[C@H]1O [Verbascoside, β-(3′,4′-dihydroxyphenyl)ethyl-O-α-L-rhamnopyranosyl (1->3)-β-D-(4-O-caffeoyl)-glucopyranoside] |  |  |  |  |  |  |  |  |  |  |  |  |  |  | SPF values calculated by the Sayre equation ([2]; verbascoside or its analogues from plant extracts 1.0% in sun protective cosmetic (Table 20)): 3.9; SPF values calculated by the Sayre equation ([2]; verbascoside or its analogues from plant extracts 2.5% in sun protective cosmetic (Table 20)): 23; SPF values calculated by the Sayre equation ([2]; verbascoside or its analogues from plant extracts 5% in sun protective cosmetic (Table 20)): 110; SPF values calculated by the Sayre equation ([2]; verbascoside or its analogues from plant/plant cell culture extracts 0.5% in sun protective cosmetic (Table 20)): 2.0; SPF values calculated by Modified Sayre ([3]; verbascoside or its analogues from plant extracts 0.5% in sun protective cosmetic, SPF = a*X^0.827): 2.2; SPF values calculated by Modified Sayre ([3]; verbascoside or its analogues from plant extracts 1.0% in sun protective cosmetic): 3.9; SPF values calculated by Modified Sayre ([3]; verbascoside or its analogues from plant extracts 2.5% in sun protective cosmetic): 8.3; SPF values calculated by Modified Sayre ([3]; verbascoside or its analogues from plant extracts 5% in sun protective cosmetic): 14.8; SPF values calculated by Modified Sayre ([3]; verbascoside or its analogues from plant extracts 8% in sun protective cosmetic): 22; SPF values calculated by Modified Sayre ([3]; verbascoside or its analogues from plant extracts 10% in sun protective cosmetic): 26; SPF values calculated by Modified Sayre ([3]; verbascoside or its analogues from plant extracts 12% in sun protective cosmetic): 31; SPF values calculated by Modified Sayre ([3]; verbascoside or its analogues from plant extracts 20% in sun protective cosmetic): 52
5 | 337 | 337 | 337 | 337 | 337 | 337 | CCCCC(CC)COC(=O)c1ccc(Nc2nc(Nc3ccc(C(=O)NC(C)(C)C)cc3)nc(Nc3ccc(C(=O)OCC(CC)CCCC)cc3)n2)cc1 (stereo not shown) [diethylhexyl butamido triazone, Diethylhexyl butamido triazone] |  | 3.2 | 9.0 | 39 | 98 | 4.1 | 10 | 23 | 44 | 131 | 3.2 | 4.6 | 7.4 | 10.6 | SPF values calculated by the Sayre equation [2, 10]: 394; SPF values ([2]; chemical UV filter 10% in sun protective solution (Tables 12-19), listed as ethylhexyl butamido triazone): 137; SPF values calculated by Modified Sayre [3, 25]: 15.3
6 | 341 | 341 | 341 | 341 | 341 | 341 | CCCCC(CC)COC(=O)c1ccc(Nc2nc(Nc3ccc(C(=O)OCC(CC)CCCC)cc3)nc(Nc3ccc(C(=O)OCC(CC)CCCC)cc3)n2)cc1 (stereo not shown) [ethylhexyl triazone, Ethylhexyl triazone] |  | 2.8 | 8 | 69 | 389 | 5.2 | 14 | 33 | 74 | 271 | 2.8 | 4.1 | 6.8 | 10.1 | SPF values ([2]; chemical UV filter 2.5% in sun protective solution (Tables 12-19), listed as ethyl hexyl triazone): 44; UVA/UVB [5, 16]: 0.21; UVA/UVB [5, 17]: 0.21; UVA/UVB [5, 18]: 0.21; UVA/UVB [5, 19]: 0.21; UVA/UVB [5, 20]: 0.21; ratio UVA/UVB [5]: 0.21
7 | 342 | 342 | 342 | 342 | 342 | 342 | CCCCC(CC)COC(=O)C(C#N)=C(c1ccccc1)c1ccccc1 (stereo not shown) [octocrylene, Octocrylene] |  | 1.9 | 4 | 13 | 26.5 | 10 | 25 | 42 | 61 | 90 | 1.6 | 2.6 | 4.7 | 7.4 | SPF values calculated by the Sayre equation [2, 10]: 36.8; UVA/UVB [5, 16]: 0.22; UVA/UVB [5, 17]: 0.22; UVA/UVB [5, 18]: 0.22; UVA/UVB [5, 19]: 0.22; UVA/UVB [5, 20]: 0.22; ratio UVA/UVB [5]: 0.22; SPF values calculated by Modified Sayre [3, 25]: 11.7
